Our source for the Emax values is US20170311605A1, “SYNERGISTIC BACILLUS THURINGIENSIS SUBSP. AIZAWAI AND FLUBENDIAMIDE MIXTURES FOR DIAMONDBACK MOTH, BEET ARMYWORM, SOYBEAN LOOPER, CORN EARWORM, AND SUGARCANE BORER CONTROL” (Valent BioSciences LLC, priority 2016, published 2017).

One experiment has as its system diamondback moth larvae. The experiment can be described thus: leaf dip test, diamondback moth larvae. Format: in vivo. The note with it: Plutella xylostella, foliar, Bta 2.7 ppm, flubendiamide 0.215 ppm, mixture 2.7 ppm + 0.215 ppm, read-out: % Efficacy. The method, then: (§1) The following examples illustrate the synergy of Bacillus thuringiensis subsp. aizawai and flubendiamide when controlling diamondback moth, beet armyworm, soybean looper, corn earworm, and sugarcane borer. Xentari® was used as the source of Bacillus thuringiensis subsp. aizawai and Belt® was used as the source of flubendiamide. The present invention is not limited to the products or formulation types used herein. In each example below, the studies were conducted as follows.
For these tests, standardized laboratory leaf dip methods were used to inoculate plant material with treatment(s). Dry, treated leaves were placed into Petri dishes (100×25 mm) containing filter paper wetted with 500 μl of distilled H2O (“dH2O”). […] Synergy ratings were calculated for each test. […]
(§2) % Cexp=A+B−(AB/100), where % Cexp is the expected efficacy and “in which A and B are the control levels given by the single [insecticides]. […] Adopting a conservative approach, Applicant determined synergy to be present at ratios of ≧1.15. […]
In order to determine synergy, rates below normal field rate ranges must be used. If normal field rate ranges are used, all of the larvae would die (combining a lethal or near lethal dose of Bacillus thuringiensis subsp. aizawai with a lethal dose of flubendiamide would most likely lead to larvae death) in every treatment and synergy would not be able to be determined. […]

Another experiment relates to corn earworm larvae. The experiment can be described thus: leaf dip test, corn earworm larvae. The note with it: Helicoverpa zea, foliar, Bta 27 ppm, flubendiamide 0.975 ppm, mixture 27 ppm + 0.975 ppm, read-out: % Efficacy. Format: in vivo. On the procedure:
as §1
(§3) For these tests, standardized laboratory leaf dip methods were used to inoculate plant material with treatment(s). Dry, treated leaves were placed into Petri dishes (100×25 mm) containing filter paper wetted with 500 μl of distilled H2O (“dH2O”). Each dish was then infested with between 5 and 10 larvae, dependent on species. Efficacy ratings were taken at specified intervals. Synergy ratings were calculated for each test.
as §2

For the next experiment, the system named is beet armyworm larvae. The experiment can be described thus: leaf dip test, beet armyworm larvae. Format: in vivo. As to conditions: Spodoptera exigua, foliar, Bta 2.7 ppm, flubendiamide 0.49 ppm, mixture 2.7 ppm + 0.49 ppm, read-out: % Efficacy. The method, then:
as §1, §3, §2

In the next experiment the test system is soybean looper larvae. The experiment can be described thus: leaf dip test, soybean looper larvae. Format: in vivo, Chrysodeixis includens. The note with it: foliar, Bta 27 ppm, flubendiamide 3.9 ppm, mixture 27 ppm + 3.9 ppm, read-out: % Efficacy. The method, then: as §1, §3, §2
In the next experiment the test system is cabbage looper larvae. The experiment can be described thus: leaf dip test, cabbage looper larvae. Format: in vivo. As to conditions: Trichoplusia ni, foliar, Bta 2.7 ppm, flubendiamide 0.49 ppm, mixture 2.7 ppm + 0.49 ppm, read-out: % Efficacy.
A further experiment deals with sugarcane borer larvae. Put plainly: leaf dip test, sugarcane borer larvae. The note with it: Diatraea saccharalis, foliar, Bta 27 ppm, flubendiamide 2.15 ppm, mixture 27 ppm + 2.15 ppm, read-out: % Efficacy. Format: in vivo. The method, then: as §1, §3, §2
For experiment [1], the system named is southwestern corn borer larvae. Put plainly: leaf dip test, southwestern corn borer larvae. The note with it: foliar, Bta 2.7 ppm, flubendiamide 0.39 ppm, mixture 2.7 ppm + 0.39 ppm, read-out: % Efficacy. Format: in vivo.

Where two headings read alike, the source gives them in different places.

As for `Cc1cc(C(F)(C(F)(F)F)C(F)(F)F)ccc1NC(=O)c1cccc(I)c1C(=O)NC(C)(C)CS(C)(=O)=O` [Flubendiamide, 3-iodo-N′-(2-mesyl-1,1-dimethylethyl)-N-{4-[1,2,2,2-tetrafluoro-1-(trifluoromethyl)ethyl]-o-tolyl}phthalamide], the Emax at 0.215 ppm with diamondback moth larvae (24 h after treatment) was determined as 11%; with diamondback moth larvae (48 h after treatment) it was 25%. Also, the Emax at 0.975 ppm turned out to be 16% with corn earworm larvae (24 h after treatment) and 29% in the experiment on corn earworm larvae (48 h after treatment). The Emax at 0.49 ppm with beet armyworm larvae (24 h after treatment) came to 12%; in the experiment with beet armyworm larvae (48 h after treatment) it was 26%; in the experiment with cabbage looper larvae (24 h after treatment) it was 4%; in the experiment on cabbage looper larvae (48 h after treatment) it was 21%. In addition, the Emax at 3.9 ppm is 3% in the experiment on soybean looper larvae (24 h after treatment) and 20% with soybean looper larvae (48 h after treatment). In addition, the Emax at 2.15 ppm was found to be 44% in the experiment with sugarcane borer larvae (24 h after treatment) and 68% in the experiment on sugarcane borer larvae (48 h after treatment). For the same compound, the Emax at 0.39 ppm in experiment [1] (24 h after treatment) came to 40%; in experiment [1] (48 h after treatment) it was 49%.
